Where two headings read alike, the source gives them in different places.
Assays:
[1] = biological target: T1, adenosine A3 receptors in HL60 membranes (Homo sapiens, UniProt P0DMS8); assay: Saturation of Compound 1 binding to A3 receptors in HL60 membranes
T1 construct: characterization of A3 receptors in some human tumor cell lines; endogenous in cells; host or cells: HL60 (human promyelocytic leukaemia), membranes
T1 sequence (P0DMS8 1-318): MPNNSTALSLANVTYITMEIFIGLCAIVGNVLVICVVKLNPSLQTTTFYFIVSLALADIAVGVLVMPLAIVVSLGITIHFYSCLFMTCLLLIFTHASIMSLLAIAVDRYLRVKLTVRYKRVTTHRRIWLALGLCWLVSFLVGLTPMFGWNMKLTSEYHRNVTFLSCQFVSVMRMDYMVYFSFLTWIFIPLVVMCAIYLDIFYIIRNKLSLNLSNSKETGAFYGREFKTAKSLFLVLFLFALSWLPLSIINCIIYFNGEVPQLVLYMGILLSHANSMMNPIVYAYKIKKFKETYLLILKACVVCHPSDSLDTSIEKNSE

[2] = biological target: T2, adenosine A3 receptors in Jurkat cell membranes (Homo sapiens, UniProt P0DMS8); assay: Saturation of Compound 1 binding to A3 receptors in Jurkat cell membranes
T2 construct: characterization of A3 receptors in some human tumor cell lines; endogenous in cells; host or cells: Jurkat (human T-cell leukaemia), membranes
T2 sequence (P0DMS8 1-318): T1 sequence (P0DMS8 1-318)

[3] = biological target: T3, rat brain A1 adenosine receptor (Rattus norvegicus, UniProt P25099); assay: Rat A1 adenosine receptor binding assay, displacement of [^3 H]CHA; conditions: rat brain membranes, [^3 H]CHA 1 nM; read-out: rA1 (Ki)
T3 construct: membranes of rat brain; from tissue; host or cells: whole brain membranes of male Wistar rats
T3 sequence (P25099 1-326): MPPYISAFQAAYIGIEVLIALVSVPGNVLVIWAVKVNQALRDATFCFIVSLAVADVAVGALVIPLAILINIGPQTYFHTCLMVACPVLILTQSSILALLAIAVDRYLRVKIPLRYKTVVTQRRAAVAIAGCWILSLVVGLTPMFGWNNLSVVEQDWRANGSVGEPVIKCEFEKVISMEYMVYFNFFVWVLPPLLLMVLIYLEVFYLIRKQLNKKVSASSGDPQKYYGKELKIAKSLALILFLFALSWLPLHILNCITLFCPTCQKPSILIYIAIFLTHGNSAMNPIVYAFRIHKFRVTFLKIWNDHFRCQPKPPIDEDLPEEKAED
Experimental: Male Wistar rats (200-250 g) were decapitated and the whole brain and striatum dissected on ice. […] After 30 min incubation at 37° C., the membranes were centrifuged and pellets were stored at -80° C. Prior to freezing, an aliquot of homogenate was removed for protein assay with bovine albumin as reference standard. Binding assays were performed on rat brain and striatum membranes respectively, in the presence of 10 mM MgCl2 at 25° C. All buffer solutions were adjusted to maintain a constant pH of 7.4.
Separation of bound from free radio ligand was performed by rapid filtration through Whatman GF/B filters which were washed three times with ice-cold buffer. Filter bound radioactivity was measured by scintillation spectrometry after addition of 5 mL of Aquassure. […] Incubation time ranged from 150 min. at 0° C. to 75 min at 30° C. according to the results of previous time-course experiments. Ki values were calculated from the Cheng-Prusoff equation. All binding data were analyzed using the nonlinear regression curve-fitting computer program LIGAND.

cerebral ischemia = conditions: chronic administration; cited from earlier work
JURKAT cell line = assay: [^125 I]-ABMECA binding on cell membranes of tumor cell lines: JURKAT; parameters: species or system human
Experimental: (§1) A series of binding experiments were performed on various tumor cell lines, using […] [^125 I]-ABMECA, with unspecific binding determined in the presence of 50 μM R-PIA or 200 μM NECA, on cell membranes of the cell lines. Specific binding was determined by substracting unspecific binding from total binding. The cell lines were the HL 60, NB4, SKN-MC, SKN-Be2C, SKN-SH and JURKAT cell lines.

SKN-MC cell line = assay: [^125 I]-ABMECA binding on cell membranes of tumor cell lines: SKN-MC
Experimental: as §1

SKN-SH cell line = assay: [^125 I]-ABMECA binding on cell membranes of tumor cell lines: SKN-SH
Experimental: as §1

HL 60 cell line = assay: [^125 I]-ABMECA binding on cell membranes of tumor cell lines: HL 60; parameters: species or system human
Experimental: as §1

NB4 cell line = assay: [^125 I]-ABMECA binding on cell membranes of tumor cell lines: NB4
Experimental: as §1

[4] = biological target: T4, human A3 receptors expressed in HEK 293 cells (Homo sapiens, UniProt P0DMS8); conditions: saturation, n=3
T4 sequence (P0DMS8 1-318): T1 sequence (P0DMS8 1-318)
Experimental: Incubation time was 60 min at 37° C., according to the results of previous time-course experiments. Bound and free radioactivity were separated by filtering the assay mixture through Whatman GF/B glass-fiber filters using a Brandel cell harvester. Non-specific binding was defined as binding in the presence of 50 μM R-PIA and was about 30% of total binding. The incubation mixture was diluted with 3 ml of ice-cold incubation buffer, rapidly vacuum filtered and the filter was washed three times with 3 ml of incubation buffer. The filter bound radioactivity was counted in a Beckman gamma 5500B γ counter. The protein concentration can be determined according to a Bio-Rad method (3) with bovine albumin as reference standard.
Non-specific binding was defined in the presence of 50 μM R-PIA and was about 30% of total binding. Incubation time was 60 min at 37° C., according to the results of previous time-course experiments. Bound and free radioactivity was separated by filtering the assay mixture through Whatman GF/B glass-fiber filters using a Brandel cell harvester.

SKN-Be2C cell line = assay: [^125 I]-ABMECA binding on cell membranes of tumor cell lines: SKN-Be2C
Experimental: as §1

[5] = biological target: T5, human A3 receptors expressed in the JURKAT cell line (Homo sapiens, UniProt P0DMS8); conditions: Jurkat cell membranes, [^125 I]AB-MECA
T5 sequence (P0DMS8 1-318): T1 sequence (P0DMS8 1-318)
Experimental: Jurkat cell lines appeared to provide the best results of the cell lines tested. A saturation experiment was performed using Jurkat cell lines at 37° C., with a one hour incubation period, using [^125 I]-ABMECA (0.125-1.5 nM), with nonspecific binding measured using RPIA (50 μM).

CCCn1cc2c(nc(NC(=O)Nc3ccc(OC)cc3)n3nc(-c4ccco4)nc23)n1 [Compound 1, 5-[[(4-Methoxyphenyl)amino]carbonyl]amino-8-propyl-2-(2-furyl)-pyrazolo[4,3-e] 1,2,4-triazolo[1,5-c]pyrimidine]
density of adenosine A3 receptors detected ([1]; HL60 cells, tritiated analogue of Compound 1): ~650 fmol/mg protein | Bmax value ([1]; HL60 membranes, 0.1 to 10 nM, n=3): 626±42 fmol/mg protein | density of adenosine A3 receptors detected ([2]; Jurkat cells, tritiated analogue of Compound 1): approximately 1300 fmol/mg protein | Bmax value ([2]; Jurkat membranes, 0.2 to 15 nM, n=3): 1.30±0.03 pmol/mg protein | Ki [3]: > 10 µM

CNC(=O)[C@H]1O[C@@H](n2cnc3c(NCc4cccc(I)c4)ncnc32)[C@H](O)[C@@H]1O [IB-MECA]
protection against cerebral ischemia (cerebral ischemia): protects against cerebral ischemia

CNC(=O)[C@H]1O[C@@H](n2cnc3c(NCc4ccc(N)c([125I])c4)ncnc32)[C@H](O)[C@@H]1O [[^125 I]AB-MECA, N^6-(4-amino-3-iodobenzyl)-5'-(N-methylcarbamoyl)adenosine]
Percent Specific Binding (JURKAT cell line; JURKAT): 38% | Total Binding (JURKAT cell line; JURKAT cell membranes): 7599 | Unspecific Binding (JURKAT cell line; JURKAT, 50 μM R-PIA or 200 μM NECA): 4753 | Specific Binding (JURKAT cell line; JURKAT, total minus unspecific): 2846 cpm | Percent Specific Binding (SKN-MC cell line; SKN-MC): 17% | Total Binding (SKN-MC cell line; SKN-MC cell membranes): 7528 | Unspecific Binding (SKN-MC cell line; SKN-MC, 50 μM R-PIA or 200 μM NECA): 6220 | Specific Binding (SKN-MC cell line; SKN-MC, total minus unspecific): 1308 cpm | Percent Specific Binding (SKN-SH cell line; SKN-SH): 3% | Total Binding (SKN-SH cell line; SKN-SH cell membranes): 2671 | Unspecific Binding (SKN-SH cell line; SKN-SH, 50 μM R-PIA or 200 μM NECA): 2580 | Specific Binding (SKN-SH cell line; SKN-SH, total minus unspecific): 91 cpm | Percent Specific Binding (HL 60 cell line; HL 60): 20% | Unspecific Binding (HL 60 cell line; HL 60, 50 μM R-PIA or 200 μM NECA): 2791 | Specific Binding (HL 60 cell line; HL 60, total minus unspecific): 693 cpm | Total Binding (HL 60 cell line; HL 60 cell membranes): 3484 | Percent Specific Binding (NB4 cell line; NB4): 19% | Unspecific Binding (NB4 cell line; NB4, 50 μM R-PIA or 200 μM NECA): 2740 | Specific Binding (NB4 cell line; NB4, total minus unspecific): 637 cpm | Total Binding (NB4 cell line; NB4 cell membranes): 3377 | Bmax value [4]: 62±1 fmol/mg protein | Percent Specific Binding (SKN-Be2C cell line; SKN-Be2C): 24% | Total Binding (SKN-Be2C cell line; SKN-Be2C cell membranes): 6000 | Unspecific Binding (SKN-Be2C cell line; SKN-Be2C, 50 μM R-PIA or 200 μM NECA): 4585 | Specific Binding (SKN-Be2C cell line; SKN-Be2C, total minus unspecific): 1415 cpm | Bmax (density of A3 receptor) [5]: approximately 300 fmol/mg protein | Bmax (density of A3 receptor) ([5]; listed as [^125 I]-ABMECA): 290 fmol/mg protein

Reference: patent US6326390A (King Pharmaceuticals Reseach and Development, Inc., priority 1999, dated 2001)
